{"source": "ChEMBL document CHEMBL1201862", "about": "“PubChem BioAssay data set” (2004)", "key": {"[1]": {"target": "Neurotensin receptor type 1 (Homo sapiens, UniProt P30989)", "sequence (P30989 whole entry)": "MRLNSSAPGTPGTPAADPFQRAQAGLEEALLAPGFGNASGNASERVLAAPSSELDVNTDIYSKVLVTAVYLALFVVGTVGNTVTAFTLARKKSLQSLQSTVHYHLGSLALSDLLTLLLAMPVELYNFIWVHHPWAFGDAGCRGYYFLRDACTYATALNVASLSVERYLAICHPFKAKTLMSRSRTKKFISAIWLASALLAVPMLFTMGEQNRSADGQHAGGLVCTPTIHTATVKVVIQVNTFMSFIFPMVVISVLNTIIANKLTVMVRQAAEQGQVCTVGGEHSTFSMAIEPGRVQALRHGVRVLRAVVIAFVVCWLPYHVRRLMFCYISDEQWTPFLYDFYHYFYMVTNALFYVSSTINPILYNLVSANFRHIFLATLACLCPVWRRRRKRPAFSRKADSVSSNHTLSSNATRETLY", "type": "functional"}, "Protein Rev": {"target": "Protein Rev (Human immunodeficiency virus type 1 group M subtype B (isolate HXB2)(HIV-1), UniProt P04618)", "sequence (P04618 whole entry)": "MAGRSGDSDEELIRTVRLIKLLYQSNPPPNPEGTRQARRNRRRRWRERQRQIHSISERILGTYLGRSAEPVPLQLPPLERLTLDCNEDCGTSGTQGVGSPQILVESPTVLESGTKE", "assay": "blockers of HIV Rev/RRE RNA complex – biochemical, fluorescence polarization, HIV-1, dose response (AID 434976)", "parameters": "species or system Human immunodeficiency virus 1"}, "[2]": {"target": "Intestinal-type alkaline phosphatase (Homo sapiens, UniProt P09923)", "sequence (P09923 whole entry)": "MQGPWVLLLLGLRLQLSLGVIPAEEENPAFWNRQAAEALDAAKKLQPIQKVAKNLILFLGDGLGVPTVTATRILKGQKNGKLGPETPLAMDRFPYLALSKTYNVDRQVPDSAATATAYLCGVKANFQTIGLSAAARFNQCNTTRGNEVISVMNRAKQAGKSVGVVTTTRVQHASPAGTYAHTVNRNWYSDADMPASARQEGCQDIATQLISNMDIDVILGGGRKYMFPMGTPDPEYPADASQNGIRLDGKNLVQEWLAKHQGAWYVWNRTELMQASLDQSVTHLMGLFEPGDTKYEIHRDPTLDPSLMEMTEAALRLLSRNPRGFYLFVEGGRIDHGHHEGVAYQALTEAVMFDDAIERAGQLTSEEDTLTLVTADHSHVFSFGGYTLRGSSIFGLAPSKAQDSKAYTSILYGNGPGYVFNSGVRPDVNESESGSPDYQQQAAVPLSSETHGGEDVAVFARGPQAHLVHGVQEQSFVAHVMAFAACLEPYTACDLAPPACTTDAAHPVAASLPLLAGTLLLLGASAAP", "assay": "Dose Response confirmation of uHTS hits from a small molecule inhibitors of human intestinal alkaline phosphatase via a luminescent assay. [Related pubchem assays (depositor defined):AID2544, AID2574]", "type": "functional"}, "Genome polyprotein": {"target": "Genome polyprotein (dengue virus type 2, UniProt P29990)", "sequence (P29990 2492-3391 limits assumed)": "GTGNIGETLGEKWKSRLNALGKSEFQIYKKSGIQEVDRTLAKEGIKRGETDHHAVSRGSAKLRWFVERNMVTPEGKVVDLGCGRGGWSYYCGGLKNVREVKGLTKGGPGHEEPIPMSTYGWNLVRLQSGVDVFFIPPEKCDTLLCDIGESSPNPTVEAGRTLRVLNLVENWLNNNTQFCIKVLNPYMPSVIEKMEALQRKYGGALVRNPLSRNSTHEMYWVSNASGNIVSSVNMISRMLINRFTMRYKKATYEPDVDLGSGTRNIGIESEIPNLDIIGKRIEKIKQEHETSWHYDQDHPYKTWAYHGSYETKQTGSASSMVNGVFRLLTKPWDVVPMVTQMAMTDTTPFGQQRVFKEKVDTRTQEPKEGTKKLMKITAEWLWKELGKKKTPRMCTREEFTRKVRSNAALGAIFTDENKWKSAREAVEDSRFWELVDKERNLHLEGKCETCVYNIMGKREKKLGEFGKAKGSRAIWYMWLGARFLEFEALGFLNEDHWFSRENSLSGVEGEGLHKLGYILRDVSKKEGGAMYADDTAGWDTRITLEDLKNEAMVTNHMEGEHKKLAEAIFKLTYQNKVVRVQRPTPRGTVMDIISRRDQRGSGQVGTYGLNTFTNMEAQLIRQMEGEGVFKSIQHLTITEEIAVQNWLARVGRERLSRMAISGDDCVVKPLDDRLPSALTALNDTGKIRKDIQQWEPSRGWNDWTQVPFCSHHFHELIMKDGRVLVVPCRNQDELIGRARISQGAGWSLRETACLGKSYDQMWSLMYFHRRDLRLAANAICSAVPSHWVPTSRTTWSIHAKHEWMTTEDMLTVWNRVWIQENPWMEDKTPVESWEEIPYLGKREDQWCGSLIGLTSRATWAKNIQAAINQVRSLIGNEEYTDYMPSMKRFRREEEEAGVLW", "assay": "flavivirus cap methylation enzyme inhibition – biochemical, confirmation dose response, primary screen (AID 588689)", "type": "functional"}, "[3]": {"target": "Female germline-specific tumor suppressor gld-1 (Caenorhabditis elegans, UniProt Q17339)", "sequence (Q17339 whole entry)": "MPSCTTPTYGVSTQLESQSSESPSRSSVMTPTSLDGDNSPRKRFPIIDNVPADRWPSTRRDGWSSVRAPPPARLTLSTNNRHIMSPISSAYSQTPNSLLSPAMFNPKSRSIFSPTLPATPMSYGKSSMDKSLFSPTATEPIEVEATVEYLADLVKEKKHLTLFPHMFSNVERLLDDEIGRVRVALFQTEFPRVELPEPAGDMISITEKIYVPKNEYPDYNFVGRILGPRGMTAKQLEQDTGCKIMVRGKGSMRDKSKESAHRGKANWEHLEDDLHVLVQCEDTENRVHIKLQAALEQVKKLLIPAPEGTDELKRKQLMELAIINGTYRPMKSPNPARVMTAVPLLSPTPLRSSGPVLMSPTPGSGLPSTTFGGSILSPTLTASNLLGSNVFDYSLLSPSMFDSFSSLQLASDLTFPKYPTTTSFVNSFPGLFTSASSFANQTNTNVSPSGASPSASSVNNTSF", "assay": "blockers of GLD-1/TGE RNA complex formation – biochemical, fluorescence polarization, C. elegans, dose response (AID 2802)"}, "[4]": {"target": "T1, Corticotropin-releasing factor receptor 2/Corticotropin-releasing factor-binding protein (Homo sapiens, UniProt P24387+Q13324)", "T1 sequence (Q13324 whole entry)": "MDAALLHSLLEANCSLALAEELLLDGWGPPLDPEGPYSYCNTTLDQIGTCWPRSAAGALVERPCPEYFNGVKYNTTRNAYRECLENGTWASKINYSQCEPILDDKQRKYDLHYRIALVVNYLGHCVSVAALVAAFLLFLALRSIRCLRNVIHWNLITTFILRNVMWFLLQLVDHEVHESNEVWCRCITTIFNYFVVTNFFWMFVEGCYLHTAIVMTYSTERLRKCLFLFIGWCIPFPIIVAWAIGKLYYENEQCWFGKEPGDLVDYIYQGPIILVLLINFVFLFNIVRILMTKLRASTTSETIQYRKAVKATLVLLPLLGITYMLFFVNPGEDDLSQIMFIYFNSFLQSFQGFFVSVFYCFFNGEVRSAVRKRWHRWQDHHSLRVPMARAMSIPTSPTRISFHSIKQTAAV", "T1 sequence (P24387 whole entry)": "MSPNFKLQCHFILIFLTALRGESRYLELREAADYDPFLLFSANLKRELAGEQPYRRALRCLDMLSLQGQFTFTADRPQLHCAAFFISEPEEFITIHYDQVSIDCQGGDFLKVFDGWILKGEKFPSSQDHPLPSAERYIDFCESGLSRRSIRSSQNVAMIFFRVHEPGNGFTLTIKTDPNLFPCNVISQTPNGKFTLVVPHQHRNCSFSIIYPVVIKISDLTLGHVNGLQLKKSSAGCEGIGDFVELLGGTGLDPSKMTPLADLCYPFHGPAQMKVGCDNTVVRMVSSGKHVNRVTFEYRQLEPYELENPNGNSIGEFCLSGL", "assay": "activators of CRF receptor 2 with binding protein – uHTS hits, confirmation (AID 602473)", "type": "functional", "details": "read-out: EC50_Mean"}, "INS1": {"system": "INS1", "assay": "INS-1E survival protection against cytokine death – cell-based, luminescence, retest, dose response (AID 449756);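 also: cell death triggered by IL-1 beta plus TNF-alpha plus IFN-gamma mixture; protective hits raise ATP signal compared with cytokine alone wells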", "type": "functional", "details": "Rattus norvegicus"}, "cells": {"assay": "cells", "type": "functional, cell-based", "details": "HEK-CNG"}, "Galanin receptor type 3": {"target": "T2, Galanin receptor type 3 (Homo sapiens, UniProt O60755)", "T2 sequence (O60755 whole entry)": "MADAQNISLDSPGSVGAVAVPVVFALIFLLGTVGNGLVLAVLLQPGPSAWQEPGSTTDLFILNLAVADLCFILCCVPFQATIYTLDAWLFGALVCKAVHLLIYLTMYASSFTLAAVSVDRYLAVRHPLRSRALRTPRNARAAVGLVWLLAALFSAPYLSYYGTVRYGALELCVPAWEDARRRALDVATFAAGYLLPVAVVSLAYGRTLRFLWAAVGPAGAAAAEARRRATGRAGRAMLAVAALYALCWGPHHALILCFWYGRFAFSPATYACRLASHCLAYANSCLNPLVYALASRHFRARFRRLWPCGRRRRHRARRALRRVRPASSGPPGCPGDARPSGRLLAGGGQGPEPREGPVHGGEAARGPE", "assay": "Fluorescence-based cell-based primary high throughput dose response assay to identify antagonists of the Galanin Receptor 3 (GalR3).", "type": "functional"}, "[5]": {"assay": "HEK-293T cell viability reduction – luminescence, B-cell screen hits, cytotoxicity control for BCR NF-kB inhibitor project, dose response (AID 489021);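 also: HEK-293T cells carrying an NF-kB luciferase reporter; cells exposed to compound for about 14 hours before viability readout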", "type": "functional, cell-based"}, "Galanin receptor type 2": {"target": "Galanin receptor type 2 (Homo sapiens, UniProt O43603)", "sequence (O43603 whole entry)": "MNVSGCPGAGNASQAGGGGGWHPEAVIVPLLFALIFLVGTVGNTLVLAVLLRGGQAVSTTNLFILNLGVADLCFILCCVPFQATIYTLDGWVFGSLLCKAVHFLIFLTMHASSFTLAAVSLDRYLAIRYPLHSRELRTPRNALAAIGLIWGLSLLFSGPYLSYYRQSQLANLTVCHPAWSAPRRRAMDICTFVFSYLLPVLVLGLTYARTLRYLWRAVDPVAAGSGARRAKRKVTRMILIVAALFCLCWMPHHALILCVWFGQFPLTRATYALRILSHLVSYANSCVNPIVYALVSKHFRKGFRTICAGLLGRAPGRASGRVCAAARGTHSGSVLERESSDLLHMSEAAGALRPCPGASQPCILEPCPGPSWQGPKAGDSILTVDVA", "assay": "Dose Response cell-based high-throughput screening assay to identify antagonists of galanin receptor 2 (GALR2). [Related pubchem assays: 828, 866 ]", "type": "functional"}, "HEK293 [6]": {"system": "HEK293", "assay": "PMA/Ionomycin induced NF-kB luciferase assay in 293- NF-kB-Luc stable cells. [Related pubchem assays: 1299, 1270, 1295, 1375, 1287, 1281, 1293, 1291, 1289, 1280, 465, 1364, 1282, 1372, 1365, 1370, 1367, 1366, 1269, 1373, 1292, 1290, 1302, 1371, 1283, 1271, 1294, 1374, 1368, 1369 ]", "type": "functional, cell-based", "details": "Homo sapiens"}, "HEK293 [7]": {"system": "HEK293", "assay": "Cytotoxicity assay in HEK293 cells. [Related pubchem assays (depositor defined):AID1266, AID1269, AID1270, AID1271, AID1280, AID1281, AID1282, AID1283, AID1287, AID1289, AID1290, AID1291, AID1292, AID1293, AID1294, AID1295, AID1299, AID1302, AID1364, AID1365, AID1366, AID1367, AID1369, AID1370, AID1371, AID1372, AID1373, AID1374, AID1375, AID1384 …", "type": "functional, cell-based", "details": "Homo sapiens"}, "[8]": {"target": "Luciferin 4-monooxygenase (Photinus pyralis, UniProt P08659)", "sequence (P08659 whole entry)": "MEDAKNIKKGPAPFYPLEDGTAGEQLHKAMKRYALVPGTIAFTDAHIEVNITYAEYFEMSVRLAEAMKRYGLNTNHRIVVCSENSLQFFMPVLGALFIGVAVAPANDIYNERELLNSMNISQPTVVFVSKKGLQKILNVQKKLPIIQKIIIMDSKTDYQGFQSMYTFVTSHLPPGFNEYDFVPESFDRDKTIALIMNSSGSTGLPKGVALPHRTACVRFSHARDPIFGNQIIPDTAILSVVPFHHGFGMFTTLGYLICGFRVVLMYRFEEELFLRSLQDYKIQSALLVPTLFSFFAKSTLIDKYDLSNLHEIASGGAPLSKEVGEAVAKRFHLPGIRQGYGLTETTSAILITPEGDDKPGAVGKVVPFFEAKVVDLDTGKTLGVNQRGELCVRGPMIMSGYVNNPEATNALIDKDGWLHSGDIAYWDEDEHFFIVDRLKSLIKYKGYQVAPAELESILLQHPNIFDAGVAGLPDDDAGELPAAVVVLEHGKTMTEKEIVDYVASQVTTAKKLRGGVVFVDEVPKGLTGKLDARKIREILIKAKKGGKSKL", "assay": "In vitro luciferase assay using purified luciferase. [Related pubchem assays: 1299, 1270, 1295, 1375, 1287, 1281, 1293, 1291, 1289, 1280, 465, 1364, 1282, 1372, 1365, 1370, 1367, 1366, 1266, 1373, 1292, 1290, 1302, 1371, 1283, 1271, 1294, 1374, 1368, 1369 ]"}, "[9]": {"target": "T3, Replicative DNA helicase DnaB (Mycobacterium tuberculosis, UniProt P9WMR3)", "T3 sequence (P9WMR3 whole entry)": "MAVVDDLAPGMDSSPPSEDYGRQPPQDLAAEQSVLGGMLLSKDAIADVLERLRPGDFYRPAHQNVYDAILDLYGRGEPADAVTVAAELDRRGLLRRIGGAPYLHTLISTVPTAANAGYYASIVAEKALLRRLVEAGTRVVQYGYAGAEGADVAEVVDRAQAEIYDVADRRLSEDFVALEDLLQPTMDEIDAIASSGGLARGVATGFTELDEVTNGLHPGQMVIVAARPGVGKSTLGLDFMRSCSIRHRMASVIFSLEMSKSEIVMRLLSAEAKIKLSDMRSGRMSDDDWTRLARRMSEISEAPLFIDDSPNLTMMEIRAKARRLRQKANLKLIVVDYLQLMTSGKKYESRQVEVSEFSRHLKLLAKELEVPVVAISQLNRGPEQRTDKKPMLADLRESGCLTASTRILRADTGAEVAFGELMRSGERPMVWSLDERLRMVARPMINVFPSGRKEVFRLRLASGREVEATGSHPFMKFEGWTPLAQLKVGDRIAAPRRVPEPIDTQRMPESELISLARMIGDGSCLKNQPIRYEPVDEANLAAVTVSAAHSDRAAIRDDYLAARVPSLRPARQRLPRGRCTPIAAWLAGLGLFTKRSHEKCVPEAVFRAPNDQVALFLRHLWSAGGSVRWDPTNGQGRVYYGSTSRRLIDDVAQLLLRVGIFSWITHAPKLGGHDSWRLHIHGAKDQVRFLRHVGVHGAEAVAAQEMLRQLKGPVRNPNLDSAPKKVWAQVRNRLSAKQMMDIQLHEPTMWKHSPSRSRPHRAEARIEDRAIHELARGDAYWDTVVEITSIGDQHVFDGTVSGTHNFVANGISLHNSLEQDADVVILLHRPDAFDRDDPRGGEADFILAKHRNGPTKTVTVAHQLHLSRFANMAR", "assay": "DnaB intein splicing inhibitors, dose response, biochemical, cell-free fluorescence (AID 449749)", "type": "functional"}, "Protein RecA": {"target": "T4, Protein RecA (Mycobacterium tuberculosis, UniProt P9WHJ3)", "T4 sequence (P9WHJ3 whole entry)": "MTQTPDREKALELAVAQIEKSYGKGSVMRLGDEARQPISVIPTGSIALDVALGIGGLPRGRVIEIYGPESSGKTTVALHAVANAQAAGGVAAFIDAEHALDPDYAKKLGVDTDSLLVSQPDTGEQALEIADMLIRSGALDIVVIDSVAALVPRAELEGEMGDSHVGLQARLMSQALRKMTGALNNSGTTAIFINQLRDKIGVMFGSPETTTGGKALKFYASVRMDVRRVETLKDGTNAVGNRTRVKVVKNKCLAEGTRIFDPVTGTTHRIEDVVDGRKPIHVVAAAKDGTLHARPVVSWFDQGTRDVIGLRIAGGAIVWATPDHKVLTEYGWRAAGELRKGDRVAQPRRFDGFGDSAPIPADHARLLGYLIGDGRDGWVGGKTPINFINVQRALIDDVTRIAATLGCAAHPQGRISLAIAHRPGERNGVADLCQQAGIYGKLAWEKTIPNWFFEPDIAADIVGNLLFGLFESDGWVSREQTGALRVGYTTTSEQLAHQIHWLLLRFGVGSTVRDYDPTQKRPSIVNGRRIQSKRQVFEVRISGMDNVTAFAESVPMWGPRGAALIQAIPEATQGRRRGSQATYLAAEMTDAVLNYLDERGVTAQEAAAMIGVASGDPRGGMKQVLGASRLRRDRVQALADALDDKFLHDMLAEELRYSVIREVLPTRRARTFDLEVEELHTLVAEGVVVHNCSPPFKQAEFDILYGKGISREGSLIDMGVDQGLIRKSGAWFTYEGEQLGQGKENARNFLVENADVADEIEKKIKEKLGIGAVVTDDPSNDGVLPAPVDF", "assay": "Fluorescence Cell-Free Homogeneous Dose Retest to Identify Inhibitors of RecA-Intein Splicing Activity. [Related pubchem assays (depositor defined):AID2097, AID2223, AID489010, AID492950]", "type": "functional"}, "HEK293 [10]": {"system": "HEK293", "assay": "EBV LMP1 TES2 canonical NF-kB signalling blockers – cell-based, HEK293, luciferase, cherry-pick, dose response (AID 588343)", "type": "functional", "details": "Homo sapiens"}, "HEK293 [11]": {"system": "HEK293", "assay": "TNF Induced NF-kB Luciferase in 293-NF-kB-Luc Stable Cells. [Related pubchem assays: 1266, 1299, 1269, 1373, 1292, 1290, 1302, 1371, 1283, 1270, 1295, 1271, 1375, 1294, 1374, 1281, 1293, 1291, 1289, 1280, 465, 1368, 1364, 1282, 1372, 1365, 1369, 1370, 1367, 1366 ]", "type": "functional, cell-based", "details": "Homo sapiens"}, "[12]": {"target": "Protein phosphatase methylesterase 1 (Homo sapiens, UniProt Q9Y570)", "sequence (Q9Y570 whole entry)": "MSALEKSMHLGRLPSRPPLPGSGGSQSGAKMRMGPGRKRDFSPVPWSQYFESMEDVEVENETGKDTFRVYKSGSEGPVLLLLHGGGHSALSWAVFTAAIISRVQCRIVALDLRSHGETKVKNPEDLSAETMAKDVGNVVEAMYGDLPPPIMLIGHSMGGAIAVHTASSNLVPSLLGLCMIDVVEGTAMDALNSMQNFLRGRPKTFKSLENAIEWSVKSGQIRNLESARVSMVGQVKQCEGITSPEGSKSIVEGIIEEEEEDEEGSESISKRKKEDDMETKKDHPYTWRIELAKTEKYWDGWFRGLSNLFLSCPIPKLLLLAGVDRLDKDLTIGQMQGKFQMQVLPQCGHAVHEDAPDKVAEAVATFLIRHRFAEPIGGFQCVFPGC", "assay": "endogenous PME-1 and serine hydrolase inhibition – cell lysate, mouse brain cytosol, FP-rhodamine, gel ABPP, selectivity assay for PME-1 inhibitor project, dose response, panel member PME-1 Assay Panel member description: Inhibition of endogenously expressed PME-1 (AID 2366)"}}, "note": "The source made the active and inactive calls.", "data": [{"smiles": "O=C(/C=C\\c1ccccc1OC(=O)c1ccccc1F)c1cc2ccccc2o1", "values": [{"measurement": "EC50", "setting": "[1]", "result": "12 µM (active)"}]}, {"smiles": "COc1ccc2nc(N3CCC(O)CC3)c(C#N)cc2c1", "values": [{"measurement": "IC50", "setting": "Protein Rev", "result": "67.6 µM (not active)"}, {"measurement": "IC50", "setting": "[2]", "result": "> 100 µM (inactive)"}, {"measurement": "IC50", "setting": "Genome polyprotein", "result": "59.2 µM (active)"}, {"measurement": "IC50", "setting": "[3]", "result": "24.9 µM (inactive)"}, {"measurement": "EC50", "setting": "[4]", "result": "> 53 µM (inactive)"}]}, {"smiles": "O=S(=O)(NCc1ccncc1)c1ccc(Br)s1", "values": [{"measurement": "AC50", "setting": "INS1", "result": "2.91 µM (active)"}, {"measurement": "EC50", "setting": "cells", "result": "> 29.9 µM (inactive)"}, {"measurement": "IC50", "setting": "Galanin receptor type 3", "result": "2.06 µM (active)"}, {"measurement": "IC50", "setting": "[5]", "result": "> 80 µM (inactive)"}, {"measurement": "IC50", "setting": "Galanin receptor type 2", "result": "> 42 µM (not active)"}]}, {"smiles": "Cc1n[nH]c2c1C(c1c(C)nn(-c3ccccc3)c1Cl)C(C#N)=C(N)O2", "note": "(centres undefined)", "values": [{"measurement": "EC50", "setting": "HEK293 [6]", "result": "1 µM (active)"}, {"measurement": "EC50", "setting": "HEK293 [7]", "result": "> 8 µM (inactive)"}, {"measurement": "EC50", "setting": "[8]", "result": "> 8 µM (not active)"}, {"measurement": "AC50", "setting": "[9]", "result": "14 µM (active)"}, {"measurement": "EC50", "setting": "Protein RecA", "result": "13.5 µM (active)"}, {"measurement": "AC50", "setting": "HEK293 [10]", "result": "7.01 µM (active)"}, {"measurement": "EC50", "setting": "HEK293 [11]", "result": "1.68 µM (active)"}]}, {"smiles": "Cc1noc(C)c1S(=O)(=O)n1cccc1/C=C(\\C#N)S(C)(=O)=O", "values": [{"measurement": "IC50", "setting": "[12]", "result": "> 20 µM (inactive)"}]}]}
